{"source": "ChEMBL document CHEMBL1131771", "about": "“Structure-activity relationship analysis of substituted 4-quinolinamines, antagonists of immunostimulatory CpG-oligodeoxynucleotides” (Bioorg Med Chem Lett, 1999)"}
{"test": "Acid dissociation constant was evaluated", "assay_type": "ADME", "conditions": "not given"}
{"smiles": "CN(C)CCNC(=O)c1cc(-c2ccc3ccccc3c2)nc2ccccc12", "pKa": 2.9}
{"smiles": "CN(C)CCN(C)c1cc(-c2ccc3ccccc3c2)nc2ccccc12", "pKa": 6.2}
{"smiles": "CN(C)CCOc1cc(-c2ccc3ccccc3c2)nc2ccccc12", "pKa": 6.1}
{"smiles": "CN1CCN(Cc2cc(Nc3cc(-c4ccc5ccccc5c4)nc4ccccc34)cc(CN3CCN(C)CC3)c2O)CC1", "pKa": 6.9}
{"test": "Concentration required for half-maximal inhibition of CpG-ODN effect on thymidine uptake by WEHI 231 murine B-cells in the presence of alpha-sIgM.", "assay_type": "functional, cell-based", "conditions": "Mus musculus, WEHI231", "units": {"EC50": "µM"}}
{"smiles": "Cc1ccc(-c2cc(NCCN(C)C)c3ccccc3n2)cc1", "EC50": 0.0123}
{"smiles": "Cc1ccc(-c2cc(NCCCN(C)C)c3ccccc3n2)cc1", "EC50": 0.0115}
{"smiles": "CN(C)CCCNc1cc(-c2ccc3ccccc3c2)nc2ccccc12", "EC50": 0.011}
{"smiles": "CN(C)CCNc1cc(-c2ccc3ccc4ccccc4c3c2)nc2ccccc12", "EC50": 0.011}
{"smiles": "O=C(CCCO)NCCCN1CCN(CCCNc2cc(-c3ccc4ccccc4c3)nc3ccccc23)CC1", "EC50": 0.0251}
{"smiles": "Oc1c(CN2CCCC2)cc(Nc2cc(-c3ccc4ccccc4c3)nc3ccccc23)cc1CN1CCCC1", "EC50": 0.0012}
{"smiles": "CN(C)CCCNc1ccnc2ccccc12", "EC50": 4.4}
{"smiles": "CC(CCCC(C)(C)O)Nc1cc(-c2ccc3ccccc3c2)nc2ccccc12", "note": "(stereo not given)", "EC50": 1.15}
{"smiles": "CN(C)CCSc1cc(-c2ccc3ccccc3c2)nc2ccccc12", "EC50": 2.4}
{"smiles": "CC(Nc1cc(-c2ccc3ccccc3c2)nc2ccccc12)C(O)c1ccccc1", "note": "(stereo not given)", "EC50": 1}
{"smiles": "CN(C)CCNc1cc(-c2ccc(C(F)(F)F)cc2)nc2ccccc12", "EC50": 0.155}
{"smiles": "CN(C)CCNc1cc(-c2cccc3ccccc23)nc2ccccc12", "EC50": 0.0398}
{"smiles": "OCCOCCNc1cc(-c2ccc3ccccc3c2)nc2ccccc12", "EC50": 0.33}
{"smiles": "CN(C)CCNC(=O)c1cc(-c2ccc3ccccc3c2)nc2ccccc12", "EC50": "> 10"}
{"smiles": "CN(C)CCN(C)c1cc(-c2ccc3ccccc3c2)nc2ccccc12", "EC50": 0.416}
{"smiles": "Oc1c(CN2CCOCC2)cc(Nc2cc(-c3ccc4ccccc4c3)nc3ccccc23)cc1CN1CCOCC1", "EC50": 0.01}
{"smiles": "CC(C)(C)OC(=O)NCCNc1cc(-c2ccc3ccccc3c2)nc2ccccc12", "EC50": 0.57}
{"smiles": "OCCCCCCNc1cc(-c2ccc3ccccc3c2)nc2ccccc12", "EC50": 0.17}
{"smiles": "CN(C)CCNc1cc(-c2ccc3ccccc3c2)nc2ccccc12", "EC50": 0.0091}
{"smiles": "CN(C)CCOc1cc(-c2ccc3ccccc3c2)nc2ccccc12", "EC50": 0.478}
{"smiles": "Oc1ccc(Nc2cc(-c3ccc4ccccc4c3)nc3ccccc23)cc1", "EC50": 0.32}
{"smiles": "OCCc1ccc(Nc2cc(-c3ccc4ccccc4c3)nc3ccccc23)cc1", "EC50": 0.51}
{"smiles": "CCN(CC)CCCC(C)Nc1cc(-c2ccccc2)nc2cc(Cl)ccc12", "note": "(stereo not given)", "EC50": 0.0513}
{"smiles": "CN(C)CCNc1cc(/C=C/c2ccccc2)nc2ccccc12", "EC50": 0.0065}
{"smiles": "CN(C)CCCCNc1cc(-c2ccc3ccccc3c2)nc2ccccc12", "EC50": 0.004}
{"smiles": "CCCCc1ccc(Nc2cc(-c3ccc4ccccc4c3)nc3ccccc23)cc1", "EC50": "> 10"}
{"smiles": "CN1CCN(Cc2cc(Nc3cc(-c4ccc5ccccc5c4)nc4ccccc34)cc(CN3CCN(C)CC3)c2O)CC1", "EC50": 0.00024}
{"smiles": "CN(C)CCCCNc1ccnc2ccccc12", "EC50": 0.316}
{"smiles": "Oc1c(CN2CCCCC2)cc(Nc2cc(-c3ccc4ccccc4c3)nc3ccccc23)cc1CN1CCCCC1", "EC50": 0.0015}
{"smiles": "CN(C)CCCCCCNc1cc(-c2ccc3ccccc3c2)nc2ccccc12", "EC50": 0.0059}
{"smiles": "CCN(CC)CCCC(C)Nc1ccnc2cc(Cl)ccc12", "note": "(stereo not given) [CHLOROQUINE]", "EC50": 0.11}
